The target in the experiment is cellular IDO1 in HeLa cells (Homo sapiens (Human), UniProt P14902). Nature of the experiment: HeLa Cell-Based IDO1 Kyn (Kynurenine) Production Assay. The note with it: IFN-γ induced IDO1, 48 hours incubation, Kyn absorbance at 480 nm. The procedure:
HeLa Cell-Based IDO1 Kyn (Kynurenine) Production Assay:
The inhibitory activity of IDO1 inhibitors is determined by using a colorimetric reaction to measure Kyn generated from L-Trp (L-Tryptophon) oxidation by cellular IDO1 in HeLa cells after induction of IDO1 expression by IFN-γ.
Hela cells were obtained from the American Type Culture Collection and recovered in 10% FBS-containing phenol red-free DMEM medium. Cells were plated onto a 96-well plate (100 μl/well) at 8000 cells per well and kept at 37° C. in a humidified incubator supplied with 5% CO2. 4 hours later, Human recombinant IFN-γ (8901SC, CST) was added to cells (final concentration 100 ng/mL) to stimulate endogenous IDOL. Compounds at different concentrations diluted in dimethylsulfoxide (DMSO) were added simultaneously with IFN-γ and 0.4 mM L-Trp. Cells were kept at 37° C. in a humidified incubator supplied with 5% CO2. After 48 hours of incubation, 100 μl supernatant from each well was removed to a new plate. The protein in the medium was precipitated with the addition of 8 μl 6N trichloroacetic acid. The plate was incubated at 60° C. for 30 minutes and then centrifugation at 2500 rpm for 10 minutes to remove sediments. 80 μl supernatants were carefully removed to a new clean plate and added with an equal volume of 2% 4-(Dimethylamino)benzaldehyde (D2004, sigma) dissolved in glacial acetic acid. The absorbance at 480 nm wavelength derived from Kyn was measured using a PHERAstar FS plate reader (BMG LABTECH). The IC5C for each compound was derived from fitting the dose-response data to the four-parameter logistic model by using XLfit software (IDBS).

Chain of cellular IDO1 in HeLa cells (P14902 whole entry): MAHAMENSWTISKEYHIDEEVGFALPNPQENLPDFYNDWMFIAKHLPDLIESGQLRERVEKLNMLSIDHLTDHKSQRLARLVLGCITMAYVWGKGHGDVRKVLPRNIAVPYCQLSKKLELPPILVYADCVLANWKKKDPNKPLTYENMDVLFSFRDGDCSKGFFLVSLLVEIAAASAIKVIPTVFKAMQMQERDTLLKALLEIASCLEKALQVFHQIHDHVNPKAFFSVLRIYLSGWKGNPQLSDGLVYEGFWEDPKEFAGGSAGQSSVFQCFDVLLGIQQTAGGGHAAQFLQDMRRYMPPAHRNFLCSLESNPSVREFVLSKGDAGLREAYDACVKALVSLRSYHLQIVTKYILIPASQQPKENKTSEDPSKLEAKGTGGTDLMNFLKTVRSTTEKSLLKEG

Compound `CC(c1nc2cc(C(=O)Nc3ccccc3)ccc2[nH]1)[C@H]1CC[C@@H](c2ccnc3ccc(F)cc32)CC1` (stereo partly shown) [Example B182, 2-(1-((1s,4s)-4-(6-fluoroquinolin-4-yl)cyclohexyl)ethyl)-N-phenyl-1H-benzo[d]imidazole-5-carboxamide] came in with an EC50 of 86.7 nM.
In the case of `COC(=O)c1ccc(C(F)(F)F)c2[nH]c(C(C)[C@H]3CC[C@@H](c4ccnc5ccc(F)cc54)CC3)nc12` (stereo partly shown) [Example B207] it was 18.4 nM; in that of `Fc1ccc2nccc([C@H]3CC[C@@H](CCc4nc5cc(Cl)ccc5[nH]4)CC3)c2c1` [Example C11, 4-((1r,4r)-4-(2-(5-chloro-1H-benzo[d]imidazol-2-yl)ethyl)cyclohexyl)-6-fluoroquinoline], 12 nM.
For the compound `Cc1cc(C(=O)NC2CCC2)cc2nc([C@@H](C)[C@H]3CC[C@@H](c4ccnc5ccc(F)cc54)CC3)[nH]c12` [B188], a half-maximal response (EC50) required 788 nM.
With `C[C@H](c1nc2ccc(C#N)cc2[nH]1)[C@H]1CC[C@@H](c2ccnc3ccc(F)cc32)CC1` [Example B8, 2-((S)-1-((1s,4R)-4-(6-fluoroquinolin-4-yl)cyclohexyl)ethyl)-1H-benzo[d]imidazole-6-carbonitrile] the figure was 6.9 nM; with `Fc1ccc2nccc(C3CCC(c4nc5cc(Cl)c(F)cc5[nH]4)CC3)c2c1` (single isomer, unassigned) [Example C1a, 4-(4-(5-chloro-6-fluoro-1H-benzo[d]imidazol-2-yl)cyclohexyl)-6-fluoroquinoline], more than 10000 nM.
In the case of `Fc1ccc2nccc([C@H]3CC[C@@H](Cc4nc5cc6c(cc5[nH]4)OCO6)CC3)c2c1` [Example A7b, 6-(((1s,4s)-4-(6-fluoroquinolin-4-yl)cyclohexyl)methyl)-5H-[1,3]dioxolo[4′,5′:4,5]benzo[1,2-d]imidazole] it was 3.6 nM; in that of `COC(=O)c1cccc2nc([C@@H](C)[C@H]3CC[C@@H](c4ccnc5ccc(F)cc54)CC3)[nH]c12` [B208], more than 1000 nM; in that of `C[C@@H](c1nc2cc(C(=O)N(C)C)ccc2[nH]1)[C@H]1CC[C@@H](c2ccnc3ccc(F)cc32)CC1` [Example B12, 2-((R)-1-((1s,4S)-4-(6-fluoroquinolin-4-yl)cyclohexyl)ethyl)-N,N-dimethyl-1H-benzo[d]imidazole-5-carboxamide], 46 nM.
With `CCOC(=O)c1ccc2[nH]c(C(C)[C@H]3CC[C@@H](c4ccnc5ccc(F)cc54)CC3)nc2c1` (stereo partly shown) [B161] the figure was 1.6 nM; with `NC(=O)c1ccc2[nH]c([C@H]3CC[C@@H](c4ccnc5ccc(F)cc54)CC3)nc2c1` [Example C9b, 2-((1s,4s)-4-(6-fluoroquinolin-4-yl)cyclohexyl)-1H-benzo[d]imidazole-5-carboxamide], 1240 nM; with `Cc1noc(-c2ccc3nc([C@H](C)[C@H]4CC[C@@H](c5ccnc6ccc(F)cc65)CC4)[nH]c3c2)n1` [Example B220, 5-(2-((R)-1-((1s,4S)-4-(6-fluoroquinolin-4-yl)cyclohexyl)ethyl)-1H-benzo[d]imidazol-6-yl)-3-methyl-1,2,4-oxadiazole], 0.96 nM.
Compound `Fc1ccc2nccc(C3CCC(CCc4nc5cc(C6CC6)ccc5[nH]4)CC3)c2c1` (stereo not shown) [Example C10, 4-(4-(2-(5-cyclopropyl-1H-benzo[d]imidazol-2-yl)ethyl)cyclohexyl)-6-fluoroquinoline] gave a concentration for a half-maximal effect (EC50) of 7 nM.
Regarding `Fc1ccc(C2CCC(Cc3nc4cc(Cl)ccc4[nH]3)CC2)c2ncccc12` (stereo not shown) [Example A24, 8-(4-((5-chloro-1H-benzo[d]imidazol-2-yl)methyl)cyclohexyl)-5-fluoroquinoline], the EC50 is 158 nM.
With `C[C@@H](c1nc2ccc(NS(C)(=O)=O)cc2[nH]1)[C@H]1CC[C@@H](c2ccnc3ccc(F)cc32)CC1` [Example B180, N-(2-((R)-1-((1r,4R)-4-(6-fluoroquinolin-4-yl)cyclohexyl)ethyl)-1H-benzo[d]imidazol-6-yl)methanesulfonamide], the midpoint of the response, the EC50, lay at 384 nM. Compared with the last compound, the EC50 is about 2.4-fold higher.
With `CCOC(=O)c1ccc2[nH]c([C@H](C)[C@H]3CC[C@@H](c4ccnc5ccc(F)cc54)CC3)nc2c1` [Example B17, ethyl 2-((R)-1-((1s,4S)-4-(6-fluoroquinolin-4-yl)cyclohexyl)ethyl)-1H-benzo[d]imidazole-5-carboxylate] the figure was 0.58 nM; with `COc1cc2nc(CC3CCC(c4ccnc5ccc(F)cc45)CC3)[nH]c2cc1Br` (stereo not shown) [Example A17, 4-(4-((6-bromo-5-methoxy-1H-benzo[d]imidazol-2-yl)methyl)cyclohexyl)-6-fluoroquinoline], 5 nM.
With `Cc1ccc2[nH]c(C3CCC(c4ccnc5ccc(F)cc45)CC3)nc2c1` (stereo not shown) [Example C3, 6-fluoro-4-(4-(5-methyl-1H-benzo[d]imidazol-2-yl)cyclohexyl)quinoline] the figure was 16 nM; with `CC(c1nc2cc(C(=O)NCC3(O)CCC3)ccc2[nH]1)[C@H]1CC[C@@H](c2ccnc3ccc(F)cc32)CC1` (stereo partly shown) [Example B183, 2-(1-((1s,4s)-4-(6-fluoroquinolin-4-yl)cyclohexyl)ethyl)-N-((1-hydroxycyclobutyl)methyl)-1H-benzo[d]imidazole-5-carboxamide], more than 1000 nM; with `Fc1ccc2[nH]c([C@H]3CC[C@H](c4ccnc5ccc(F)cc54)CC3)nc2c1` [Example C5a, 6-fluoro-4-((1r,4r)-4-(5-fluoro-1H-benzo[d]imidazol-2-yl)cyclohexyl)quinoline], 1430 nM.
In the case of `CC(c1nc2ccc(N)cc2[nH]1)[C@H]1CC[C@@H](c2ccnc3ccc(F)cc32)CC1` (stereo partly shown) [Example B169, 2-(1-((1s,4s)-4-(6-fluoroquinolin-4-yl)cyclohexyl)ethyl)-1H-benzo[d]imidazol-6-amine] it was 19.6 nM.
As to `Clc1ccc2nc(C3CC4CC3CC4c3ccccc3)[nH]c2c1` (stereo not shown) [Example D1, 6-chloro-2-(5-phenylbicyclo[2.2.1]heptan-2-yl)-1H-benzo[d]imidazole], the EC50 was found to be 1090 nM.
With `Fc1cc2nc(C[C@H]3CC[C@H](c4ccc(F)c5ncccc54)CC3)[nH]c2cc1F` [Example A26a, 5-((1r,4r)-4-((5,6-difluoro-1H-benzo[d]imidazol-2-yl)methyl)cyclohexyl)-8-fluoroquinoline] the figure was 466 nM; with `Fc1ccc2nccc([C@H]3CC[C@@H](c4nc5cc(C6CC6)ccc5[nH]4)CC3)c2c1` [Example C6b, 4-((1s,4s)-4-(5-cyclopropyl-1H-benzo[d]imidazol-2-yl)cyclohexyl)-6-fluoroquinoline], 14 nM; with `COC(=O)c1cccc2[nH]c([C@H](C)[C@H]3CC[C@@H](c4ccnc5ccc(F)cc54)CC3)nc12` [Example B210, methyl 2-((R)-1-((1s,4S)-4-(6-fluoroquinolin-4-yl)cyclohexyl)ethyl)-1H-benzo[d]imidazole-4-carboxylate], 26.6 nM.
`COC(=O)c1cc(C)c2[nH]c(C(C)C3CCC(c4ccnc5ccc(F)cc45)CC3)nc2c1` (stereo not shown) [B177] displayed an EC50 of 6.9 nM. This EC50 lies about 3.9-fold lower than the previous one.
As to `C[C@@H](c1nc2cc(C(=O)NC3CC3)c(F)cc2[nH]1)[C@H]1CC[C@@H](c2ccnc3ccc(F)cc32)CC1` [B158], the midpoint of the response, the EC50, lay at 6.9 nM.
With `COC(=O)c1ccc2[nH]c(C(C)C3CCC(c4ccnc5ccc(F)cc45)CC3)nc2c1` (stereo not shown) [Example B3, methyl 2-(1-(4-(6-fluoroquinolin-4-yl)cyclohexyl)ethyl)-1H-benzo[d]imidazole-5-carboxylate], the response was half-maximal at 1.3 nM (EC50).
Consider `C[C@H](c1nc2cc(F)c(-c3cccnc3)cc2[nH]1)[C@H]1CC[C@@H](c2ccnc3ccc(F)cc32)CC1` [B152], for which a half-maximal effect (EC50) was put at 62.9 nM.
In the case of `CC(c1nc2ccc(C(=O)NC3COC3)cc2[nH]1)[C@H]1CC[C@@H](c2ccnc3ccc(F)cc32)CC1` (stereo partly shown) [B214] it was 84 nM.
In the case of `CCOC(=O)c1cc2nc([C@@H](C)C3CCC(c4ccnc5ccc(F)cc45)CC3)[nH]c2cc1C` (stereo partly drawn) [Example B200, ethyl 2-((S)-1-((1s,4S)-4-(6-fluoroquinolin-4-yl)cyclohexyl)ethyl)-6-methyl-1H-benzo[d]imidazole-5-carboxylate] it was 73.3 nM; in that of `CC(c1nc2cc(F)c(F)c(Cl)c2[nH]1)[C@H]1CC[C@@H](c2ccnc3ccc(F)cc32)CC1` (stereo partly shown) [Example B203, 4-((1s,4s)-4-(1-(7-chloro-5,6-difluoro-1H-benzo[d]imidazol-2-yl)ethyl)cyclohexyl)-6-fluoroquinoline], 8.8 nM; in that of `COC(=O)c1ccc2[nH]c([C@H]3CC[C@@H](c4ccnc5ccc(F)cc54)CC3)nc2c1` [Example C8b, methyl 2-((1s,4s)-4-(6-fluoroquinolin-4-yl)cyclohexyl)-1H-benzo[d]imidazole-5-carboxylate], 37 nM.
For `C[C@@H](c1nc2c(F)cc(F)c(Cl)c2[nH]1)[C@H]1CC[C@@H](c2ccnc3ccc(F)cc32)CC1` [Example B204, 4-((1R,4s)-4-((S)-1-(7-chloro-4,6-difluoro-1H-benzo[d]imidazol-2-yl)ethyl)cyclohexyl)-6-fluoroquinoline], the EC50 worked out at 6.79 nM.
